Measurements from PMC11822212, “High-throughput screening identifies Aurora kinase B as a critical therapeutic target for Merkel cell carcinoma” (Nature Communications, 2025).
Read-outs that look alike come from different tables or passages of the source.

Experiments:
[1] = test system: VN-MCC cell lines (MCC13, MCC26, UISO); assay: qHTS cell viability, VN-MCC cell lines as a group (mean AUC, VN.MCC.avg); assay type: cell-based, human
UISO cells (VN-MCC) = assay: qHTS cell viability (CellTiter-Glo, 72 h; primary and follow-up small molecule screen); assay type: cell-based, human
MCC13 cells (VN-MCC) = assay: as above; assay type: cell-based, human
[2] = test system: VP-MCC cell lines (WAGA, MKL-1, MKL-2); assay: qHTS cell viability, VP-MCC cell lines as a group (mean AUC, VP.MCC.avg); assay type: cell-based, human
MKL-1 cells (VP-MCC) = assay: qHTS cell viability (CellTiter-Glo, 72 h; primary and follow-up small molecule screen); assay type: cell-based, human
[3] = test system: six MCC cell lines and four control cell lines; assay: qHTS cell viability, all 10 cell lines screened; assay type: cell-based
CRL-7250 cells = assay: qHTS cell viability (CellTiter-Glo, 72 h; primary screen), control cell line; assay type: cell-based
MKL-2 cells (VP-MCC) = assay: qHTS cell viability (CellTiter-Glo, 72 h; primary and follow-up small molecule screen); assay type: cell-based, human
[4] = test system: control cell lines (HACAT, HEK293T, CRL-7250, NIH-3T3); assay: qHTS cell viability, control cell lines as a group (mean AUC, Control.avg); assay type: cell-based
HACAT cells = assay: qHTS cell viability (CellTiter-Glo, 72 h; primary screen), control cell line; assay type: cell-based, human
HEK293T cells = assay: as above; assay type: cell-based, human
MCC26 cells (VN-MCC) = assay: qHTS cell viability (CellTiter-Glo, 72 h; primary and follow-up small molecule screen); assay type: cell-based, human
[5] = test system: MCC cell lines (WAGA, MKL-1, MKL-2, MCC13, MCC26, UISO); assay: qHTS cell viability, all six MCC cell lines as a group (mean AUC, MCC.avg); assay type: cell-based, human
NIH-3T3 cells = assay: qHTS cell viability (CellTiter-Glo, 72 h; primary screen), control cell line; assay type: cell-based, mouse
WAGA cells (VP-MCC) = assay: qHTS cell viability (CellTiter-Glo, 72 h; primary and follow-up small molecule screen); assay type: cell-based, human
[6] = NPC library, mean AUC of VN-MCC cell lines
[7] = NPC library, therapeutic window: Control avg AUC minus VN-MCC avg AUC
[8] = NPC library, qHTS dose-response AUC, UISO
[9] = NPC library, qHTS dose-response AUC, MCC13
[10] = NPC library, mean AUC of VP-MCC cell lines
[11] = NPC library, therapeutic window: Control avg AUC minus VP-MCC avg AUC
[12] = NPC library, qHTS dose-response AUC, MKL1
[13] = NPC library, therapeutic window: Control avg AUC minus MCC avg AUC
[14] = NPC library, qHTS dose-response AUC, CRL7250 control
[15] = NPC library, qHTS dose-response AUC, MKL2
[16] = NPC library, mean AUC of control cell lines
[17] = NPC library, qHTS dose-response AUC, HACAT control
[18] = NPC library, qHTS dose-response AUC, HEK293T control
[19] = NPC library, qHTS dose-response AUC, MCC26
[20] = NPC library, mean AUC of six MCC cell lines
[21] = NPC library, qHTS dose-response AUC, NIH3T3 control
[22] = NPC library, qHTS dose-response AUC, WAGA

With `CC(C)(O)/C=C/C(=O)[C@](C)(O)[C@H]1[C@H](O)C[C@@]2(C)[C@@H]3CC=C4[C@@H](C=C(O)C(=O)C4(C)C)[C@]3(C)C(=O)C[C@]12C` [Cucurbitacin I] the Control-VN-MCC [1] was 16.3626, the VN-MCC_Avg_AUC [1] was 297.712 and the UISO_AUC (UISO cells (VN-MCC)) was 252.668. The MCC13_AUC (MCC13 cells (VN-MCC)) was 297.405, the Control-VP-MCC [2] was 109.051 and the VP-MCC_Avg_AUC [2] was 205.024. It also gave an MKL1_AUC (MKL-1 cells (VP-MCC)) of 212.417, a Control-MCC [3] of 62.7066 and a CRL7250_AUC (CRL-7250 cells) of 234.715. For the same compound, the MKL2_AUC (MKL-2 cells (VP-MCC)) was 186.366, the Control_Avg_AUC [4] was 314.075 and the HACAT_AUC (HACAT cells) was 326.184. For the same compound, the HEK293T_AUC (HEK293T cells) was 307.458, the MCC26_AUC (MCC26 cells (VN-MCC)) was 343.064 and the MCC_Avg_AUC [5] was 251.368. For the same compound, the NIH3T3_AUC (NIH-3T3 cells) was 387.943 and the WAGA_AUC (WAGA cells (VP-MCC)) was 216.289.
With `CC[N+]1(CC)CCC(=C(c2ccccc2)c2ccccc2)C1C` (stereo not shown) [Prifinium bromide] the VN-MCC_Avg_AUC [1, 6] was 472.229, the Control-VN-MCC [1, 7] was -3.929 and the UISO_AUC (UISO cells (VN-MCC); [8]) was 446.738. It also gave an MCC13_AUC (MCC13 cells (VN-MCC); [9]) of 477.436, a VP-MCC_Avg_AUC [2, 10] of 414.775 and a Control-VP-MCC [2, 11] of 53.5255. It also gave an MKL1_AUC (MKL-1 cells (VP-MCC); [12]) of 413.62, a Control-MCC [3, 13] of 24.7984 and a CRL7250_AUC (CRL-7250 cells; [14]) of 489.513. The MKL2_AUC (MKL-2 cells (VP-MCC); [15]) was 411.638, the Control_Avg_AUC [4, 16] was 468.3 and the HACAT_AUC (HACAT cells; [17]) was 452.968. It also gave an HEK293T_AUC (HEK293T cells; [18]) of 463.923, an MCC26_AUC (MCC26 cells (VN-MCC); [19]) of 492.512 and an MCC_Avg_AUC [5, 20] of 443.502. For the same compound, the NIH3T3_AUC (NIH-3T3 cells; [21]) was 466.796 and the WAGA_AUC (WAGA cells (VP-MCC); [22]) was 419.066.
Compound `O=C(CCCN1CCC(O)(c2ccc(Br)cc2)CC1)c1ccc(F)cc1` [Bromperidol] has a VN-MCC_Avg_AUC [1, 6] of 488.845, a Control-VN-MCC [1, 7] of -22.1834 and a UISO_AUC (UISO cells (VN-MCC); [8]) of 465.264. For the same compound, the UISO_AUC (UISO cells (VN-MCC); area under the dose-response curve, UISO cells, AUC<450 = reduced viability) was 465.264, the “Area under the dose-response curve (AUC) UISO Replicate 1” value (UISO cells (VN-MCC); follow-up screen, UISO, replicate 1) was 462.9 and the “Area under the dose-response curve (AUC) UISO Replicate 2” value (UISO cells (VN-MCC); follow-up screen, UISO, replicate 2) was 471.4. For the same compound, the “Area under the dose-response curve (AUC) UISO Replicate 3” value (UISO cells (VN-MCC); follow-up screen, UISO, replicate 3) was 450.6, the MCC13_AUC (MCC13 cells (VN-MCC); [9]) was 492.435 and the MCC13_AUC (MCC13 cells (VN-MCC); area under the dose-response curve, MCC13 cells, AUC<450 = reduced viability) was 492.435. For the same compound, the “Area under the dose-response curve (AUC) MCC13 Replicate 1” value (MCC13 cells (VN-MCC); follow-up screen, MCC13, replicate 1) was 481.5, the “Area under the dose-response curve (AUC) MCC13 Replicate 2” value (MCC13 cells (VN-MCC); follow-up screen, MCC13, replicate 2) was 447.1 and the “Area under the dose-response curve (AUC) MCC13 Replicate 3” value (MCC13 cells (VN-MCC); follow-up screen, MCC13, replicate 3) was 475.2. The VP-MCC_Avg_AUC [2, 10] was 121.377, the Control-VP-MCC [2, 11] was 345.285 and the MKL1_AUC (MKL-1 cells (VP-MCC); [12]) was 166.857. The MKL1_AUC (MKL-1 cells (VP-MCC); area under the dose-response curve, MKL-1 cells, AUC<450 = reduced viability) was 166.857, the “Area under the dose-response curve (AUC) MKL-1 Replicate 1” value (MKL-1 cells (VP-MCC); follow-up screen, MKL-1, replicate 1) was 478.5 and the “Area under the dose-response curve (AUC) MKL-1 Replicate 2” value (MKL-1 cells (VP-MCC); follow-up screen, MKL-1, replicate 2) was 458.4. The “Area under the dose-response curve (AUC) MKL-1 Replicate 3” value (MKL-1 cells (VP-MCC); follow-up screen, MKL-1, replicate 3) was 486.1, the Control-MCC [3, 13] was 161.551 and the CRL7250_AUC (CRL-7250 cells; [14]) was 469.585. It also gave a CRL7250_AUC (CRL-7250 cells; area under the dose-response curve, CRL7250 control cells, AUC<450 = reduced viability) of 469.584, an MKL2_AUC (MKL-2 cells (VP-MCC); [15]) of 116.273 and an MKL2_AUC (MKL-2 cells (VP-MCC); area under the dose-response curve, MKL-2 cells, AUC<450 = reduced viability) of 116.273. For the same compound, the “Area under the dose-response curve (AUC) MKL-2 Replicate 1” value (MKL-2 cells (VP-MCC); follow-up screen, MKL-2, replicate 1) was 432.2, the “Area under the dose-response curve (AUC) MKL-2 Replicate 2” value (MKL-2 cells (VP-MCC); follow-up screen, MKL-2, replicate 2) was 463.9 and the “Area under the dose-response curve (AUC) MKL-2 Replicate 3” value (MKL-2 cells (VP-MCC); follow-up screen, MKL-2, replicate 3) was 462.5. The Control_Avg_AUC [4, 16] was 466.662, the HACAT_AUC (HACAT cells; [17]) was 453.423 and the HACAT_AUC (HACAT cells; area under the dose-response curve, HACAT control cells, AUC<450 = reduced viability) was 453.423. It also gave an HEK293T_AUC (HEK293T cells; [18]) of 458.67, an HEK293T_AUC (HEK293T cells; area under the dose-response curve, HEK293T control cells, AUC<450 = reduced viability) of 458.67 and an MCC26_AUC (MCC26 cells (VN-MCC); [19]) of 508.837. For the same compound, the MCC26_AUC (MCC26 cells (VN-MCC); area under the dose-response curve, MCC26 cells, AUC<450 = reduced viability) was 508.837, the “Area under the dose-response curve (AUC) MCC26 Replicate 1” value (MCC26 cells (VN-MCC); follow-up screen, MCC26, replicate 1) was 451.5 and the “Area under the dose-response curve (AUC) MCC26 Replicate 2” value (MCC26 cells (VN-MCC); follow-up screen, MCC26, replicate 2) was 430.2. The “Area under the dose-response curve (AUC) MCC26 Replicate 3” value (MCC26 cells (VN-MCC); follow-up screen, MCC26, replicate 3) was 459.8, the MCC_Avg_AUC [5, 20] was 305.111 and the NIH3T3_AUC (NIH-3T3 cells; [21]) was 484.97. The NIH3T3_AUC (NIH-3T3 cells; area under the dose-response curve, NIH3T3 control cells, AUC<450 = reduced viability) was 484.97, the WAGA_AUC (WAGA cells (VP-MCC); [22]) was 81.0002 and the WAGA_AUC (WAGA cells (VP-MCC); area under the dose-response curve, WAGA cells, AUC<450 = reduced viability) was 81.0002. The “Area under the dose-response curve (AUC) WAGA Replicate 1” value (WAGA cells (VP-MCC); follow-up screen, WAGA, replicate 1) was 490.2, the “Area under the dose-response curve (AUC) WAGA Replicate 2” value (WAGA cells (VP-MCC); follow-up screen, WAGA, replicate 2) was 473.6 and the “Area under the dose-response curve (AUC) WAGA Replicate 3” value (WAGA cells (VP-MCC); follow-up screen, WAGA, replicate 3) was 491.6.
